The target of the assay is T1, Human Polymorphonuclear Leukocyte Elastase (Homo sapiens, UniProt P08246).
T1 sequence (P08246 30-267): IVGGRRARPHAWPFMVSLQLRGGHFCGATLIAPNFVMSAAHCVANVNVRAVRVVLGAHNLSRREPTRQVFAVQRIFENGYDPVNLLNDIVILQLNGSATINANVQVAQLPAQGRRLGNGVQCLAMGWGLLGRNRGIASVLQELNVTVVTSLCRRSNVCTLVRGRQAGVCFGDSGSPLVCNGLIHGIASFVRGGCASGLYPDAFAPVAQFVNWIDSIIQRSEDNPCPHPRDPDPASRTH
In words: Inhibition of human polymorphonuclear leukocyte elastase via hydrolysis of Boc-AAPAN or Boc-AAPVN. The conditions noted are these: second order rate constant for inactivation of the enzyme, read-out: Kobs /[I]. The class given is biochemical. The protocol:
Enzyme Assays for the Inhibition of Human Polymorphonuclear Leukocyte Elastase Via Hydrolysis of N-t-Boc-alanyl-alanyl-prolylalanine-p-nitroanilide (Boc-AAPAN) or […] (Boc-AAPVN) Reagent:
0.05M TES (N-tris[hydroxymethyl]methyl-2-amino-ethanesulfonic acid) Buffer, pH 7.5.
0.2 mM Boc-AAPAN or Boc-AAPVN.
To prepare substrate, the solid was first dissolved in 10.0 ml DMSO. Buffer at pH 7.5 was then added to a final volume of 100 ml.
Crude extract of human polymorphonuclear leukocytes (PMN) containing elastase activity.
Inhibitors (azetidinones) to be tested dissolved in DMSO just before use.
To 1.0 ml of 0.2 mM Boc-AAPAN in a cuvette, 0.01-0.1 ml of DMSO with or without inhibitor was added. After mixing, a measurement was taken at 410 mμ to detect any spontaneous hydrolysis due to presence of test compound. 0.05 Milliliters of PMN extract was then added and the ΔOD/min at 410 mμ was measured and recorded. Beckman model 35 spectrophotometer was used.
Results in Tables I to III were reported as ID50, effective dosage in micrograms per milliliter (μg/ml) for 50% inhibition of the enzyme activity 2 minutes after zero time.
Results were also expressed as Ki, the micromolar concentration of the inhibitor (μM) giving 50% of the control enzyme activity; or as ^k obs/I which is the second order rate constant in per mole per second for inactivation of the enzyme.
The elastase activity in the crude PMN extract may vary from one preparation to another. A control of each new batch is run, and the volume added in the assay procedure is adjusted according to activity.

The text below walks through data of patent publication US5952321A, “Substituted azetidinones as anti-inflammatory and antidegenerative agents” (Merck & Co., Inc., priority 1996, dated 1999).

Read-outs that look alike come from different tables or passages of the source.

Regarding `CCC[C@@H](NC(=O)N1C(=O)C(CC)(CC)[C@@H]1Oc1ccc(C(C)N(CC)CCOC)cc1)c1ccc(C)cc1` (some centres unmarked) [R4=Et; R5=CH2 CH2 OMe; R6=Me], the kinact/KI (pH 7.5, Table I) worked out at 600000 M⁻¹ s⁻¹.
The same measure, in the same setting: for `CCC[C@@H](NC(=O)N1C(=O)C(CC)(CC)[C@@H]1Oc1ccc(CN(C)CCOC(=O)N(C)C)cc1)c1ccc(C)cc1` [R4=Me; R5=CH2 CH2 OCONMe2; R6=H, (4S)-3,3-Diethyl-1-[(R)-α-n-propyl-(4-methyl)benzylaminocarbonyl]-4-[(4-((2-dimethylaminocarbonyloxy)ethyl)methylaminomethyl)phenoxy]azetidin-2-one] the value was 610000 M⁻¹ s⁻¹; for `CCC[C@@H](NC(=O)N1C(=O)C(CC)(CC)[C@@H]1Oc1ccc(CNC(=O)CCN(CC)CC)cc1)c1ccc(C)cc1` [R4=H; R5=COCH2 CH2 N Et2; R6=H], 850000 M⁻¹ s⁻¹.
As to `CCC[C@@H](NC(=O)N1C(=O)C(CC)(CC)[C@@H]1Oc1ccc(CN(C)C(C)COC)c(Cl)c1)c1ccc(C)cc1` (some centres unmarked), the kinact/KI (pH 7.5, Table III) was determined as 650000 M⁻¹ s⁻¹.
As to `CCC[C@@H](NC(=O)N1C(=O)C(CC)(CC)[C@@H]1Oc1ccc(CNC(C)=O)cc1)c1ccc(C)cc1` [R4=H; R5=Ac; R6=H, (4S)-3,3-Diethyl-1-[(R)-α-(n-propyl)-4-(methyl)benzylaminocarbonyl]-4-[(4-(N-acetyl)aminomethyl)phenoxy]azetidin-2-one], the kinact/KI (pH 7.5, Table I) was found to be 750000 M⁻¹ s⁻¹.
For `CCC[C@@H](NC(=O)N1C(=O)C(CC)(CC)[C@@H]1Oc1ccc(CNC2CC2)cc1)c1ccc2c(c1)OCO2`, where the note is “pH 7.5, Table III”, the kinact/KI was determined as 1.6e+06 M⁻¹ s⁻¹.
On the same count and under the same terms, the value for `CCC[C@@H](NC(=O)N1C(=O)C(CC)(CC)[C@@H]1Oc1ccc(CN(CC)C(C)COC)c(OC)c1)c1ccc(C)cc1` (some centres unmarked) was 1.3e+06 M⁻¹ s⁻¹.
For the compound `CCC[C@@H](NC(=O)N1C(=O)C(CC)(CC)[C@@H]1Oc1ccc(CN2CCN(C(=O)N(CC)CC)CC2)cc1)c1ccc(C)cc1`, under “pH 7.5, Table I”, the kinact/KI was found to be 1.4e+06 M⁻¹ s⁻¹.
For `CCC[C@@H](NC(=O)N1C(=O)C(CC)(CC)[C@@H]1Oc1ccc(C(COC)N(C)CCC)cc1)c1ccc(C)cc1` (mixture of isomers) [R4=Me; R5=n-Pr; R6=CH2 OMe, 3,3-Diethyl-1-[(R)-α-(n-propyl)-4-(methyl)benzylaminocarbonyl]-4-(S)-[4-{1-(RS)-(N-(n-propyl)-N-(methyl)amino)-2-methoxyethyl}phenoxy]azetidin-2-one], the kinact/KI (pH 7.5, Table I) stood at 1.5e+06 M⁻¹ s⁻¹.
Take `CCC[C@@H](NC(=O)N1C(=O)C(CC)(CC)[C@@H]1Oc1ccc(CN(CC)CCOC)c(C)c1)c1ccc(C)cc1`: the kinact/KI (pH 7.5, Table III) amounted to 450000 M⁻¹ s⁻¹.
For `CCC[C@@H](NC(=O)N1C(=O)C(CC)(CC)[C@@H]1Oc1ccc(CN(CC)C(C)COC)cc1)c1ccc2c(c1)OCO2` (some centres unmarked), the kinact/KI (pH 7.5, Table III) amounted to 1.6e+06 M⁻¹ s⁻¹.
As to `CCC[C@@H](NC(=O)N1C(=O)C(CC)(CC)[C@@H]1Oc1ccc(CN2CCC(OC)C2)cc1)c1ccc(C)cc1` (some centres unmarked) [R4+R5=--CH2 CH2 CH(OMe)CH2 --; R6=H], the kinact/KI (pH 7.5, Table I) is 765000 M⁻¹ s⁻¹.
Still for that read-out and setting: for `CCC[C@@H](NC(=O)N1C(=O)C(CC)(CC)[C@@H]1Oc1ccc(CN2CCN(C(=O)C(C)C)CC2)cc1)c1ccc(C)cc1` the value was 1.6e+06 M⁻¹ s⁻¹.
Regarding `CCC[C@@H](NC(=O)N1C(=O)C(CC)(CC)[C@@H]1Oc1ccc(CN(C)CCOC)c(C)c1)c1ccc(C)cc1`, the kinact/KI (pH 7.5, Table III) worked out at 540000 M⁻¹ s⁻¹.
In the case of `CCCNC(=O)NCc1ccc(O[C@@H]2N(C(=O)N[C@H](CCC)c3ccc(C)cc3)C(=O)C2(CC)CC)cc1` [R4=H; R5=CONHnPr; R6=H, (4S)-3,3-Diethyl-1-[(R)-α-(n-propyl)-4-(methyl)benzylaminocarbonyl]-4-[(4-((N-propyl)aminocarbonyl)aminomethyl)phenoxy]azetidin-2-one], under “pH 7.5, Table I”, the kinact/KI was found to be 1.2e+06 M⁻¹ s⁻¹.
On to `CCC[C@@H](NC(=O)N1C(=O)C(CC)(CC)[C@@H]1Oc1ccc(CN)cc1)c1ccc(C)cc1` [R4=H; R5=H; R6=H, (4S)-3,3-Diethyl-1-[(R)-α-(n-propyl)-4-(methyl)benzylaminocarbonyl]-4-[(4-aminomethyl)phenoxy]azetidin-2-one], for which, where the note is “pH 7.5, Table I”, the kinact/KI came out at 325000 M⁻¹ s⁻¹.
The same measure, in the same setting: for `CCC[C@@H](NC(=O)N1C(=O)C(CC)(CC)[C@@H]1Oc1ccc(CN(C)CC[S+]([O-])CC)cc1)c1ccc(C)cc1` (stereo partly drawn) [R4=Me; R5=CH2 CH2 SOEt; R6=H, (4S)-3,3-Diethyl-1-[(R)-α-n-propyl-(4-methyl)benzylaminocarbonyl]-4-[(4-((2-thioethyl)ethyl)methylaminomethyl)phenoxy]azetidin-2-one, S-oxide] the value was 1.4e+06 M⁻¹ s⁻¹.
Consider `CCC[C@@H](NC(=O)N1C(=O)C(CC)(CC)[C@@H]1Oc1ccc(CN(C)CCN(C)C(=O)OC)cc1)c1ccc(C)cc1` [R4=Me; R5=CH2 CH2 N(Me)COOMe; R6=H], for which the kinact/KI (pH 7.5, Table I) was found to be 1.1e+06 M⁻¹ s⁻¹.
With `CCC[C@@H](NC(=O)N1C(=O)C(CC)(CC)[C@@H]1Oc1ccc(CN(CC)CCOCCOC)c(OC)c1)c1ccc(C)cc1`, where the note is “pH 7.5, Table III”, the kinact/KI worked out at 1.7e+06 M⁻¹ s⁻¹.
Take `CCC[C@@H](NC(=O)N1C(=O)C(CC)(CC)[C@@H]1Oc1ccc(C(C)N2CCC(OC)C2)cc1)c1ccc(C)cc1` (some centres unmarked) [R4+R5=--CH2 CH2 CH(OMe)CH2 --; R6=Me]: the kinact/KI (pH 7.5, Table I) came to 1e+06 M⁻¹ s⁻¹.
Consider `CCC[C@@H](NC(=O)N1C(=O)C(CC)(CC)[C@@H]1Oc1ccc([C@H](C)N(C)CCOC)cc1)c1ccc(C)cc1` [R4=Me; R5=CH2 CH2 OMe; R6=(S)--Me, (4S)-3,3-Diethyl-4-{(S)-4-[1-((2-methoxyethyl)methylamino)ethyl]phenoxy}-1-[(R)-α-n-propyl-(4-methyl)benzylaminocarbonyl]azetidin-2-one], for which the kinact/KI (pH 7.5, Table I) is 515000 M⁻¹ s⁻¹.
Still for that read-out and setting: for `CCC[C@@H](NC(=O)N1C(=O)C(CC)(CC)[C@@H]1Oc1ccc(CN(C)CC(=O)N(CCC)CCC)cc1)c1ccc(C)cc1` [R4=Me; R5=CH2 CON(n-Pr)2; R6=H] the value was 910000 M⁻¹ s⁻¹; for `CCC[C@@H](NC(=O)N1C(=O)C(CC)(CC)[C@@H]1Oc1ccc(CN(CC)CCSC)cc1)c1ccc(C)cc1` [R4=Et; R5=CH2 CH2 SMe; R6=H], 690000 M⁻¹ s⁻¹; for `CCC[C@@H](NC(=O)N1C(=O)C(CC)(CC)[C@@H]1Oc1ccc(CN(C)CCN(C)C)cc1)c1ccc(C)cc1` [R4=Me; R5=CH2 CH2 NMe2; R6=H], 850000 M⁻¹ s⁻¹.
As to `CCC[C@@H](NC(=O)N1C(=O)C(CC)(CC)[C@@H]1Oc1ccc(Cn2ccnc2)cc1)c1ccc(C)cc1` [R4+R5=--CHCHNCH--; R6=H], where the note is “pH 7.5, Table I”, the kinact/KI is 1.6e+06 M⁻¹ s⁻¹.
Still for that read-out and setting: for `CCC[C@@H](NC(=O)N1C(=O)C(CC)(CC)[C@@H]1Oc1ccc(CN2CCN(C(=O)N(C)C)CC2)cc1)c1ccc(C)cc1` [(4S)-3,3-Diethyl-1-[(R)-α-n-propyl-(4-methyl)benzylaminocarbonyl]-4-[(4-((4-dimethylaminocarbonyl)piperazin-1-yl)methyl)phenoxy]azetidin-2-one] the value was 1.55e+06 M⁻¹ s⁻¹; for `CCC[C@@H](NC(=O)N1C(=O)C(CC)(CC)[C@@H]1Oc1ccc(CN2C(C)CCC2C)cc1)c1ccc(C)cc1` (some centres unmarked) [R4+R5=--CHMeCH2 CH2 CHMe--; R6=H], 670000 M⁻¹ s⁻¹.
With `CCC[C@@H](NC(=O)N1C(=O)C(CC)(CC)[C@@H]1Oc1ccc(CCN2CCOCC2)cc1)c1ccc(C)cc1` [R4+R5=--CH2 CH2 OCH2 CH2 --; n=2, (4S)-3,3-Diethyl-1-[(R)-α-n-propyl-(4-methyl)benzylaminocarbonyl]-4-[(4-(2-(4-morpholino))ethyl)phenoxy]azetidin-2-one], for the setting “pH 7.5, Table II”, the kinact/KI was determined as 600000 M⁻¹ s⁻¹.
For the compound `CCC[C@@H](NC(=O)N1C(=O)C(CC)(CC)[C@@H]1Oc1ccc(CNC(=O)NC)cc1)c1ccc(C)cc1` [R4=H; R5=CONHMe; R6=H, (4S)-3,3-Diethyl-1-[(R)-α-(n-propyl)-4-(methyl)benzylaminocarbonyl]-4-[(4-((N-methyl)aminocarbonyl)aminomethyl)phenoxy]azetidin-2-one], the kinact/KI (pH 7.5, Table I) is 1.1e+06 M⁻¹ s⁻¹.
The same measure, in the same setting: for `CCC[C@@H](NC(=O)N1C(=O)C(CC)(CC)[C@@H]1Oc1ccc(C(C)N(C)CCO)cc1)c1ccc(C)cc1` (some centres unmarked) [R4=Me; R5=CH2 CH2 OH; R6=Me] the value was 770000 M⁻¹ s⁻¹.
The same measure, in the same setting: for `CCC[C@@H](NC(=O)N1C(=O)C(CC)(CC)[C@@H]1Oc1ccc(CN(C)Cc2ccccc2)cc1)c1ccc(C)cc1` [R4=Me; R5=Bn; R6=H] the value was 400000 M⁻¹ s⁻¹.
The same measure, in the same setting: the value for `CCC[C@@H](NC(=O)N1C(=O)C(CC)(CC)[C@@H]1Oc1ccc(CN2CCN(c3ncccn3)CC2)cc1)c1ccc(C)cc1` was 715000 M⁻¹ s⁻¹; that for `CCC[C@@H](NC(=O)N1C(=O)C(CC)(CC)[C@@H]1Oc1ccc(CN2CCN(C(=O)OC)CC2)cc1)c1ccc(C)cc1` was 730000 M⁻¹ s⁻¹.
Consider `CCC[C@@H](NC(=O)N1C(=O)C(CC)(CC)[C@@H]1Oc1ccc(CN(C)CCOC(=O)C(C)(C)C)cc1)c1ccc(C)cc1` [R4=Me; R5=CH2 CH2 OCOCMe3; R6=H], for which the kinact/KI (pH 7.5, Table I) was 230000 M⁻¹ s⁻¹.
Still for that read-out and setting: for `CCC[C@@H](NC(=O)N1C(=O)C(CC)(CC)[C@@H]1Oc1ccc(CN(C)CCC(=O)N(C)C)cc1)c1ccc(C)cc1` [R4=Me; R5=CH2 CH2 CONMe2; R6=H] the value was 870000 M⁻¹ s⁻¹.
